Measurements taken from patent US20230085307A1, “PYRIDAZINONE COMPOUND AND HERBICIDE” (NISSAN CHEMICAL CORPORATION, priority 2019, published 2023).

Assays:
Italian ryegrass [1] = test: Test Example 5: herbicidal effect by foliage application, plastic box (Table 20, symbol K); format: in vivo, Italian ryegrass (Lolium multiflorum); conditions: 320 g/ha, evaluated three weeks after application
How it was run: (§1)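 Foliar spray test: emulsion formulation diluted in water to a set application rate, sprayed onto 14-day-old plants raised in diluvial soil at 25° C to 30° C under glass. Both herbicidal effect and crop effect rated visually three weeks later.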

barnyard grass [2] = test: Test Example 3: herbicidal effect by foliage application, Wagner pot (Table 18, symbol H); format: in vivo, barnyard grass (Echinochloa crus-galli)
How it was run: (§2)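 Plants were sown in alluvial soil held under 0.1–0.5 cm standing water and grown 14 days in a greenhouse at 25–30 °C. An emulsifiable formulation, water-diluted to the set dose, was then sprayed onto the foliage, and effects were scored three weeks later using previously defined criteria.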

windgrass [3] = test: Test Example 5: herbicidal effect by foliage application, plastic box (Table 20, symbol L); format: in vivo, windgrass (Apera spica-venti); conditions: 320 g/ha, evaluated three weeks after application
How it was run: as §1

barnyard grass [4] = test: Test Example 5: herbicidal effect by foliage application, plastic box (Table 20, symbol H); format: in vivo, barnyard grass (Echinochloa crus-galli); conditions: 320 g/ha, evaluated three weeks after application
How it was run: as §1

green foxtail [5] = test: Test Example 4: herbicidal effect by soil treatment (Table 19, symbol G); format: in vivo, green foxtail (Setaria viridis); conditions: amount of applied herbicide 320 g/ha
How it was run: (§3)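 Herbicidal effect was rated 3 weeks after treatment, using the scoring criteria of an earlier test. The compound, formulated as an emulsion and diluted in water to a set herbicide amount, had been sprayed uniformly on soil over freshly sown seeds. Growth took place in a greenhouse at 25° C. to 30° C.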

velvetleaf [6] = test: Test Example 5: herbicidal effect by foliage application, plastic box (Table 20, symbol M); format: in vivo, velvetleaf (Abutilon theophrasti); conditions: 320 g/ha, evaluated three weeks after application
How it was run: as §1

chickweed [7] = test: Test Example 5: herbicidal effect by foliage application, plastic box (Table 20, symbol P); format: in vivo, common chickweed (Stellaria media); conditions: 320 g/ha, evaluated three weeks after application
How it was run: as §1

Italian ryegrass [8] = test: Test Example 4: herbicidal effect by soil treatment (Table 19, symbol K); format: in vivo, Italian ryegrass (Lolium multiflorum); conditions: amount of applied herbicide 320 g/ha
How it was run: as §3

chickweed [9] = test: Test Example 4: herbicidal effect by soil treatment (Table 19, symbol P); format: in vivo, common chickweed (Stellaria media); conditions: amount of applied herbicide 320 g/ha
How it was run: as §3

lambsquarters [10] = test: Test Example 4: herbicidal effect by soil treatment (Table 19, symbol O); format: in vivo, lambsquarters (Chenopodium album); conditions: amount of applied herbicide 320 g/ha
How it was run: as §3

lambsquarters [11] = test: Test Example 5: herbicidal effect by foliage application, plastic box (Table 20, symbol O); format: in vivo, lambsquarters (Chenopodium album); conditions: 320 g/ha, evaluated three weeks after application
How it was run: as §1

wild oat [12] = test: Test Example 5: herbicidal effect by foliage application, plastic box (Table 20, symbol I); format: in vivo, wild oat (Avena fatua); conditions: 320 g/ha, evaluated three weeks after application
How it was run: as §1

green foxtail [13] = test: Test Example 5: herbicidal effect by foliage application, plastic box (Table 20, symbol G); format: in vivo, green foxtail (Setaria viridis); conditions: 320 g/ha, evaluated three weeks after application
How it was run: as §1

persian speedwell [14] = test: Test Example 4: herbicidal effect by soil treatment (Table 19, symbol R); format: in vivo, Persian speedwell (Veronica persica); conditions: amount of applied herbicide 320 g/ha
How it was run: as §3

persian speedwell [15] = test: Test Example 5: herbicidal effect by foliage application, plastic box (Table 20, symbol R); format: in vivo, Persian speedwell (Veronica persica); conditions: 320 g/ha, evaluated three weeks after application
How it was run: as §1

velvetleaf [16] = test: Test Example 4: herbicidal effect by soil treatment (Table 19, symbol M); format: in vivo, velvetleaf (Abutilon theophrasti); conditions: amount of applied herbicide 320 g/ha
How it was run: as §3

wild oat [17] = test: Test Example 4: herbicidal effect by soil treatment (Table 19, symbol I); format: in vivo, wild oat (Avena fatua); conditions: amount of applied herbicide 320 g/ha
How it was run: as §3

blackgrass = test: Test Example 5: herbicidal effect by foliage application, plastic box (Table 20, symbol J); format: in vivo, blackgrass (Alopecurus myosuroides); conditions: 320 g/ha, evaluated three weeks after application
How it was run: as §1

barnyard grass [18] = test: Test Example 4: herbicidal effect by soil treatment (Table 19, symbol H); format: in vivo, barnyard grass (Echinochloa crus-galli); conditions: amount of applied herbicide 320 g/ha
How it was run: as §3

redroot pigweed [19] = test: Test Example 5: herbicidal effect by foliage application, plastic box (Table 20, symbol N); format: in vivo, redroot pigweed (Amaranthus retroflexus); conditions: 320 g/ha, evaluated three weeks after application
How it was run: as §1

southern crabgrass [20] = test: Test Example 4: herbicidal effect by soil treatment (Table 19, symbol F); format: in vivo, southern crabgrass (Digitaria ciliaris); conditions: amount of applied herbicide 320 g/ha
How it was run: as §3

Chinese sprangletop = test: Test Example 3: herbicidal effect by foliage application, Wagner pot (Table 18, symbol D); format: in vivo, chinese sprangletop (Leptochloa chinensis)
How it was run: as §2

rice flat sedge = test: Test Example 3: herbicidal effect by foliage application, Wagner pot (Table 18, symbol E); format: in vivo, rice flat sedge (Cyperus iria)
How it was run: as §2

redroot pigweed [21] = test: Test Example 4: herbicidal effect by soil treatment (Table 19, symbol N); format: in vivo, redroot pigweed (Amaranthus retroflexus); conditions: amount of applied herbicide 320 g/ha
How it was run: as §3

southern crabgrass [22] = test: Test Example 5: herbicidal effect by foliage application, plastic box (Table 20, symbol F); format: in vivo, southern crabgrass (Digitaria ciliaris); conditions: 320 g/ha, evaluated three weeks after application
How it was run: as §1

windgrass [23] = test: Test Example 4: herbicidal effect by soil treatment (Table 19, symbol L); format: in vivo, windgrass (Apera spica-venti); conditions: amount of applied herbicide 320 g/ha
How it was run: as §3

[24] = amount of applied herbicide 320 g/ha
[25] = foliage application after 14-day growth

SMILES: Cc1nn(C)c(=O)c(-c2c(-c3ccccc3C(F)(F)F)sc3ccc(F)cc23)c1O [2-229]
- herbicidal effect on K: Italian ryegrass (criteria 0-5) (Italian ryegrass [1]; foliage application): 4 (Herbicidal rate of 70% or more and less than 90%)
- herbicidal effect on H: barnyard grass (barnyard grass [2]; [24]): 4 (Herbicidal rate of 70% or more and less than 90%)
- herbicidal effect on L: windgrass (criteria 0-5) (windgrass [3]; foliage application): 4 (Herbicidal rate of 70% or more and less than 90%)
- herbicidal effect on H: barnyard grass (criteria 0-5) (barnyard grass [4]; foliage application): 3 (Herbicidal rate of 40% or more and less than 70%)
- herbicidal effect on G: green foxtail (green foxtail [5]): 3 (Herbicidal rate of 40% or more and less than 70%)
- herbicidal effect on M: velvetleaf (criteria 0-5) (velvetleaf [6]; foliage application): 4 (Herbicidal rate of 70% or more and less than 90%)
- herbicidal effect on P: chickweed (criteria 0-5) (chickweed [7]; foliage application): 5 (Herbicidal rate of 90% or more (almost completely withered))
- herbicidal effect on K: Italian ryegrass (Italian ryegrass [8]): 2 (Herbicidal rate of 20% or more and less than 40%)
- herbicidal effect on P: chickweed (chickweed [9]): 1 (Herbicidal rate of 5% or more and less than 20%)
- herbicidal effect on O: lambsquarters (lambsquarters [10]): 3 (Herbicidal rate of 40% or more and less than 70%)
- herbicidal effect on O: lambsquarters (criteria 0-5) (lambsquarters [11]; foliage application): 4 (Herbicidal rate of 70% or more and less than 90%)
- herbicidal effect on I: wild oat (criteria 0-5) (wild oat [12]; foliage application): 1 (Herbicidal rate of 5% or more and less than 20%)
- herbicidal effect on G: green foxtail (criteria 0-5) (green foxtail [13]; foliage application): 5 (Herbicidal rate of 90% or more (almost completely withered))
- herbicidal effect on R: persian speedwell (persian speedwell [14]): 0 (Herbicidal rate of 5% or less (almost no effect))
- herbicidal effect on R: persian speedwell (criteria 0-5) (persian speedwell [15]; foliage application): 5 (Herbicidal rate of 90% or more (almost completely withered))
- herbicidal effect on M: velvetleaf (velvetleaf [16]): 1 (Herbicidal rate of 5% or more and less than 20%)
- herbicidal effect on I: wild oat (wild oat [17]): 0 (Herbicidal rate of 5% or less (almost no effect))
- herbicidal effect on J: blackgrass (criteria 0-5) (blackgrass; foliage application): 3 (Herbicidal rate of 40% or more and less than 70%)
- herbicidal effect on H: barnyard grass (barnyard grass [18]): 1 (Herbicidal rate of 5% or more and less than 20%)
- herbicidal effect on N: redroot pigweed (criteria 0-5) (redroot pigweed [19]; foliage application): 4 (Herbicidal rate of 70% or more and less than 90%)
- herbicidal effect on F: southern crabgrass (southern crabgrass [20]): 3 (Herbicidal rate of 40% or more and less than 70%)
- herbicidal effect on D: Chinese sprangletop (Chinese sprangletop; [24]): 3 (Herbicidal rate of 40% or more and less than 70%)
- herbicidal effect on E: rice flat sedge (rice flat sedge; [24]): 4 (Herbicidal rate of 70% or more and less than 90%)
- herbicidal effect on N: redroot pigweed (redroot pigweed [21]): 2 (Herbicidal rate of 20% or more and less than 40%)
- herbicidal effect on F: southern crabgrass (criteria 0-5) (southern crabgrass [22]; foliage application): 3 (Herbicidal rate of 40% or more and less than 70%)
- herbicidal effect on L: windgrass (windgrass [23]): 0 (Herbicidal rate of 5% or less (almost no effect))

SMILES: COc1ccccc1-c1sc2cc(OS(=O)(=O)C(F)(F)F)ccc2c1-c1c(O)c(C)nn(C)c1=O [3-161]
- herbicidal effect on K: Italian ryegrass (evaluation grade 0-5) (Italian ryegrass [1]; [25]): 4 (Herbicidal rate of 70% or more and less than 90%)
- herbicidal effect on barnyard grass (H) (barnyard grass [2]; 320 g/ha): 5 (Herbicidal rate of 90% or more (almost completely withered))
- herbicidal effect on L: windgrass (evaluation grade 0-5) (windgrass [3]; [25]): 4 (Herbicidal rate of 70% or more and less than 90%)
- herbicidal effect on H: barnyard grass (evaluation grade 0-5) (barnyard grass [4]; [25]): 3 (Herbicidal rate of 40% or more and less than 70%)
- Herbicidal effect by soil treatment, G: green foxtail (green foxtail [5]): 0 (Herbicidal rate of 5% or less (almost no effect))
- herbicidal effect on M: velvetleaf (evaluation grade 0-5) (velvetleaf [6]; [25]): 2 (Herbicidal rate of 20% or more and less than 40%)
- herbicidal effect on P: chickweed (evaluation grade 0-5) (chickweed [7]; [25]): 5 (Herbicidal rate of 90% or more (almost completely withered))
- Herbicidal effect by soil treatment, K: Italian ryegrass (Italian ryegrass [8]): 0 (Herbicidal rate of 5% or less (almost no effect))
- Herbicidal effect by soil treatment, P: chickweed (chickweed [9]): 0 (Herbicidal rate of 5% or less (almost no effect))
- Herbicidal effect by soil treatment, O: lambsquarters (lambsquarters [10]): 0 (Herbicidal rate of 5% or less (almost no effect))
- herbicidal effect on O: lambsquarters (evaluation grade 0-5) (lambsquarters [11]; [25]): 3 (Herbicidal rate of 40% or more and less than 70%)
- herbicidal effect on I: wild oat (evaluation grade 0-5) (wild oat [12]; [25]): 0 (Herbicidal rate of 5% or less (almost no effect))
- herbicidal effect on G: green foxtail (evaluation grade 0-5) (green foxtail [13]; [25]): 3 (Herbicidal rate of 40% or more and less than 70%)
- Herbicidal effect by soil treatment, R: persian speedwell (persian speedwell [14]): 0 (Herbicidal rate of 5% or less (almost no effect))
- herbicidal effect on R: persian speedwell (evaluation grade 0-5) (persian speedwell [15]; [25]): 5 (Herbicidal rate of 90% or more (almost completely withered))
- Herbicidal effect by soil treatment, M: velvetleaf (velvetleaf [16]): 0 (Herbicidal rate of 5% or less (almost no effect))
- Herbicidal effect by soil treatment, I: wild oat (wild oat [17]): 0 (Herbicidal rate of 5% or less (almost no effect))
- herbicidal effect on J: blackgrass (evaluation grade 0-5) (blackgrass; [25]): 4 (Herbicidal rate of 70% or more and less than 90%)
- Herbicidal effect by soil treatment, H: barnyard grass (barnyard grass [18]): 0 (Herbicidal rate of 5% or less (almost no effect))
- herbicidal effect on N: redroot pigweed (evaluation grade 0-5) (redroot pigweed [19]; [25]): 4 (Herbicidal rate of 70% or more and less than 90%)
- Herbicidal effect by soil treatment, F: southern crabgrass (southern crabgrass [20]): 0 (Herbicidal rate of 5% or less (almost no effect))
- herbicidal effect on Chinese sprangletop (D) (Chinese sprangletop; 320 g/ha): 3 (Herbicidal rate of 40% or more and less than 70%)
- herbicidal effect on rice flat sedge (E) (rice flat sedge; 320 g/ha): 3 (Herbicidal rate of 40% or more and less than 70%)
- Herbicidal effect by soil treatment, N: redroot pigweed (redroot pigweed [21]): 4 (Herbicidal rate of 70% or more and less than 90%)
- herbicidal effect on F: southern crabgrass (evaluation grade 0-5) (southern crabgrass [22]; [25]): 0 (Herbicidal rate of 5% or less (almost no effect))
- Herbicidal effect by soil treatment, L: windgrass (windgrass [23]): 0 (Herbicidal rate of 5% or less (almost no effect))
